Results published in ChEMBL document CHEMBL1152405, “Bis-anthracenyl isoxazolyl amides have enhanced anticancer activity” (Bioorg Med Chem Lett, 2009).

Key:
Format in all cases: functional, cell-based
[1] = system: SNB-19; experiment: Antitumor activity against human SNB19 cells after 2 hrs; conditions: SNB-19, 2 h
[2] = system: SNB-19; experiment: Antitumor activity against human SNB19 cells after 24 hrs; conditions: SNB-19, 24 h
[3] = system: SNB-19; experiment: Antitumor activity against human SNB19 cells after 48 hrs; conditions: SNB-19, 48 h

- IC50 [1]: 114 µM
- IC50 [2]: 23.9 µM
- IC50 [3]: 30.1 µM
SMILES: Cc1onc(-c2c3ccccc3c(Cl)c3ccccc23)c1C(=O)NCCCN(C)CCCNC(=O)c1c(-c2c3ccccc3c(Cl)c3ccccc23)noc1C
